According to US6906094B2, “1,2,4-tribsubstituted benzenes as inhibitors of 15-lipoxygenase” (Warner-Lambert Company, priority 2000, dated 2005):

SMILES | melting point [°C]
COC(=O)COC(=O)NS(=O)(=O)Nc1cc(-c2cc3cc(F)c(F)cc3[nH]2)ccc1OC (hydrate or solvate) [Example 43, Acetic Acid, [[[[[[5-(5,6-difluoro-1H-indol-2-yl)-2-methoxyphenyl]amino]-sulfonyl]amino]carbonyl]oxy]-, Methyl ester] | 190 to 192
COc1ccc(C(=O)Nc2ccc(F)c(F)c2)cc1NS(=O)(=O)NC(=O)Nc1ccc(C(C)(C)C)cc1 (hydrate or solvate) [Example 59, Benzamide, N-(3,4-difluorophenyl)-3-[[[[[[4-(1,1-dimethylethyl)phenyl]-amino]carbonyl]amino]sulfonyl]amino]-4-methoxy] | 199 to 202
COc1ccc(C(=O)Nc2ccc(F)c(F)c2)cc1NS(=O)(=O)NC(=O)Nc1cccc([N+](=O)[O-])c1 (hydrate or solvate) [Example 60, Benzamide, N-(3,4-difluorophenyl)-4-methoxy-3-[[[[[(3-nitrophenyl) -amino]carbonyl]amino]sulfonyl]amino]] | 206 to 208
COc1ccc(C(=O)Nc2ccc(F)c(F)c2)cc1NS(=O)(=O)NC(=O)OCC(C)C [Example 23, Carbamic Acid, [[(5-[[(3,4-difluorophenyl)amino]carbonyl]-2-methoxyphenyl]amino]sulfonyl]-, 2-methylpropyl ester] | 188 to 190
COc1ccc(C(=O)Nc2ccc(F)c(F)c2)cc1NS(=O)(=O)NC(=O)Nc1cc(C(F)(F)F)cc(C(F)(F)F)c1 (hydrate or solvate) [Example 62, Benzamide, 3-[[[[[[3,5-bis(trifluoromethyl)phenyl]amino]-carbonyl]amino]-sulfonyl]amino]-N-(3,4-difluorophenyl)-4-methoxy] | 175 to 178
